Patent publication US5912233A, “Methods and peptides for the treatment of non-IgE-mediated diseases” (Dura Pharmaceuticals, Inc., priority 1995, dated 1999)
Values joined by “and” are separate entries in the source; they are usually repeats but may differ in a detail not shown here. Equal values may be shown once. Residues, ends and D or L forms follow the SMILES beside them. No end group written: not given here.

How the values were obtained:
[1] = system: immunoglobulin Fc receptors; details: U.S. Pat. No. 4,628,045; cited from earlier work
[2] = system: chronic idiopathic urticaria; details: human, in vivo
[3] = system: immune complex-mediated ulcerative colitis; test: Immune complex-induced ulcerative colitis model (formalin + IgG immune complexes); format: in vivo, BKA mice; details: prednisolone 5.0 mg/kg i.p.
Method: A mouse model of intestinal inflammation was employed wherein the efficacy of pentigetide in reducing inflammation induced by formalin and complementfixing lgG immune complexes was measured. This model is particularly useful as a model of human ulcerative colitis and shares many clinical and histological functions of the human disease including sensitivity to glucocorticoids, sulfasalazine and 5-aminosalicylic acid (see L. P. Walsh, et al., British J. Pharm. 91:294 (1987); A. Blackham, et al., British J. Pharm. 89:694 (1986); L. D. Walsh and I. J. Zeitlin, British J. Pharm. 92:741 (1987)). The mouse model of intestinal inflammation used in these studies is induced by the exposure of the animals to chemicals which are known to trigger inflammatory processes in both animals and humans. […]
Colonic tissue water content was determined by tissue weight loss on drying of colonic tissues. […]
The response to immune complex alone was determined quantitatively by subtracting the mean value in group B from the mean value in group C. An estimate of the percentage reduction in this response produced by the drug was calculated as: [formula] […] Statistical significance was determined using the non-parametric Mann-Whitney U-test. […]

[4] = system: lymphoblastoid tissue culture cells; details: two trials; U.S. Pat. No. 4,161,522; cited from earlier work
[5] = system: carrageenan-induced inflammation; test: Carrageenan-induced footpad edema; format: in vivo, Balb/C mice; details: 10 mg/kg s.c. 24 hours prior to carrageenan
Method: In order to examine the ability of pentigetide to inhibit carrageenan-induced inflammation, female Balb/C mice were injected with 0.025 ml of 1.0% carrageenan solution (type lx carrageenan: Sigma No. C-1013, Lot No. 86F-0698) or saline in the right hind footpad 5 minutes after intravenous tail vein injection of 0.2 ml pentigetide (1.0 mg/kg) or saline solution. Indomethacin (10 mg/kg was used as a positive control and was administered by subcutaneous injection 24 hours prior to carrageenan injection. Footpad volumes were measured using a Buxco plethysmograph over a 6 hour period. Pentigetide produced substantial inhibition of carrageenan-induced inflammation when compared to saline control animals.

[6] = system: sheep erythrocyte (SRBC)-induced DTH reactions; test: Sheep erythrocyte (SRBC)-induced DTH, footpad volume; format: in vivo, Balb/C mice; details: indomethacin 1.0 mg/kg, day 4; positive control
[7] = system: tetanus toxoid-induced DTH reactions; set-up: species or system Balb/C mice; details: mouse, in vivo

Asp-Ser-Glu-Pro-Arg (DSEPR; printed: Asp-Ser-Glu-Pro-Arg)
blocking of immune complex binding to immunoglobulin Fc receptors [1]: capable of blocking immune complex binding

N=C(N)NCCC[C@H](NC(=O)[C@@H]1CCCN1C(=O)[C@H](CC(=O)O)NC(=O)[C@H](CO)NC(=O)[C@@H](N)CC(=O)O)C(=O)O [pentigetide, Asp-Ser-Asp-Pro-Arg] (H-DSDPR-OH)
side effects [2]: did not experience any side effects

C[C@]12C=CC(=O)C=C1CC[C@@H]1[C@@H]2[C@@H](O)C[C@@]2(C)[C@H]1CC[C@]2(O)C(=O)CO [prednisolone]
reduction of colonic edema ([3]; three days prior and daily thereafter, p<0.01): 86.2%
reduction of colonic edema (in the colitic sign score paragraph) ([3]; p<0.001): 93.8%

[-Cys-Ala-Asn-Ser-Asn-Pro-Arg]2 (CANSNPR; also: dimer)
activity in blocking binding of IgE to lymphoblastoid tissue culture cells [4]: 9% and 12%

COc1ccc2c(c1)c(CC(=O)O)c(C)n2C(=O)c1ccc(Cl)cc1 [Indomethacin, indomethacin]
Percent Inhibition ([5]; 1.0 hours after carrageenan injection): -35%
Percent Inhibition ([5]; 2.0 hours after carrageenan injection): -60%
Percent Inhibition ([5]; 4.0 hours after carrageenan injection): -39%
Percent Inhibition ([5]; 6.0 hours after carrageenan injection): -47%
inhibition (footpad swelling) [6]: 43%
inhibition (footpad swelling) [7]: 45%

Asn-Ser-Asp-Pro-Arg (NSDPR; printed: Asn-Ser-Asp-Pro-Arg)
activity in blocking binding of IgE to lymphoblastoid tissue culture cells [4]: lower activity

Asn-Ser-Asn-Pro-Arg (NSNPR; printed: Asn-Ser-Asn-Pro-Arg)
activity in blocking binding of IgE to lymphoblastoid tissue culture cells [4]: lower activity
